“And” between values parts separate entries of the source, which are not always exact repeats. Equal entries are not always repeated. Inconclusive results and toxic doses are left out.
Tested on: P388 leukemia ip, CD2F1 mice, survival T/C
Experiment: NCI In Vivo Anticancer Drug Screen. Data for tumor model P388 Leukemia (intraperitoneal) in CD2F1 (CDF1) mice
Conditions: endpoint: median survival time, higher = longer survival
In short: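 Mice carrying the transplanted tumor received test compound or vehicle. Survival was recorded in each group, and the value is the treated-group measurement divided by that of the vehicle-treated control group.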

[1] = dose: 12.5 mg/kg/injection, schedule: Q01DX009 (ip), vehicle: saline
[2] = dose: 25.0 mg/kg/injection, schedule: Q01DX009 (ip), vehicle: saline
[3] = dose: 50.0 mg/kg/injection, schedule: Q01DX009 (ip), vehicle: saline
[4] = dose: 12.5 mg/kg/injection, schedule: Q01DX009 (ip), vehicle: other
[5] = dose: 25.0 mg/kg/injection, schedule: Q01DX009 (ip), vehicle: other
[6] = dose: 50.0 mg/kg/injection, schedule: Q01DX005 (ip), vehicle: saline
[7] = dose: 100.0 mg/kg/injection, schedule: Q01DX005 (ip), vehicle: saline
[8] = dose: 50.0 mg/kg/injection, schedule: Q01DX009 (ip), vehicle: other
[9] = dose: 100.0 mg/kg/injection, schedule: Q01DX009 (ip), vehicle: other
[10] = dose: 200.0 mg/kg/injection, schedule: Q01DX009 (ip), vehicle: other
[11] = dose: 50.0 mg/kg/injection, schedule: Q01DX009 (ip), vehicle: saline with Tween-80

`O=C1c2c(O)ccc(O)c2C(=O)c2c(NCCN(CCO)Cc3ccccc3)ccc(NCCN(CCO)Cc3ccccc3)c21` was tested. Which T/C (dose: 0.62 mg/kg/injection, schedule: Q01DX009 (ip), vehicle: saline with Tween-80) did it give?
Its T/C is 118 % of control.

What about the T/C (dose: 1.25 mg/kg/injection, schedule: Q01DX009 (ip), vehicle: saline with Tween-80) of the same compound?
The T/C was 106 % of control.

And the T/C (dose: 2.5 mg/kg/injection, schedule: Q01DX009 (ip), vehicle: saline with Tween-80)?
Its T/C is 97 % of control.

And the T/C (dose: 5.0 mg/kg/injection, schedule: Q01DX009 (ip), vehicle: saline with Tween-80)?
The T/C was 109 % of control.

What about the T/C (dose: 10.0 mg/kg/injection, schedule: Q01DX009 (ip), vehicle: saline with Tween-80) of the same compound?
Its T/C is 86 % of control.

And the T/C (dose: 20.0 mg/kg/injection, schedule: Q01DX009 (ip), vehicle: saline with Tween-80)?
Its T/C is 103 % of control.

What about the T/C (dose: 40.0 mg/kg/injection, schedule: Q01DX009 (ip), vehicle: distilled water + Tween-80) of the same compound?
The T/C was 101 % of control.

And the T/C (dose: 40.0 mg/kg/injection, schedule: Q01DX009 (ip), vehicle: saline with Tween-80)?
The T/C was 103 % of control.

And the T/C (dose: 80.0 mg/kg/injection, schedule: Q01DX009 (ip), vehicle: distilled water + Tween-80)?
Its T/C is 123 % of control.

What about the T/C (dose: 80.0 mg/kg/injection, schedule: Q01DX009 (ip), vehicle: saline with Tween-80) of the same compound?
Its T/C is 106 % of control.

And the T/C (dose: 160.0 mg/kg/injection, schedule: Q01DX009 (ip), vehicle: distilled water + Tween-80)?
Its T/C is 166 % of control.

What about the T/C (dose: 160.0 mg/kg/injection, schedule: Q01DX009 (ip), vehicle: saline with Tween-80) of the same compound?
The T/C was 163 % of control.

What about the T/C (dose: 320.0 mg/kg/injection, schedule: Q01DX009 (ip), vehicle: distilled water + Tween-80) of the same compound?
Its T/C is 194 % of control.

`CC(C)C1=CC2=CCC3C(C)(C(=O)O)CCCC3(C)C2CC1.[Ni]` (stereo not drawn) was tested. Which T/C [1] did it give?
The T/C was 95 % of control.

And the T/C [2]?
The T/C was 88 % of control.

What about the T/C [3] of the same compound?
Its T/C is 88 % of control.

`COC(=O)c1ccccc1OC(C)=O` was tested. Which T/C (dose: 25.0 mg/kg/injection, schedule: Q01DX009 (ip), vehicle: suspension in saline) did it give?
The T/C was 99 % of control.

What about the T/C (dose: 50.0 mg/kg/injection, schedule: Q01DX009 (ip), vehicle: suspension in saline) of the same compound?
The T/C was 99 % of control.

And the T/C (dose: 100.0 mg/kg/injection, schedule: Q01DX009 (ip), vehicle: suspension in saline)?
Its T/C is 96 % of control.

What about the T/C (dose: 200.0 mg/kg/injection, schedule: Q01DX009 (ip), vehicle: suspension in saline) of the same compound?
Its T/C is 100 % of control.

How did the T/C (dose: 3.12 mg/kg/injection, schedule: Q01DX009 (ip), vehicle: other) turn out when `CCCNC(=S)Nc1ccc(F)cc1F` was run?
Its T/C is 108 % of control.

And the T/C (dose: 6.25 mg/kg/injection, schedule: Q01DX009 (ip), vehicle: other)?
The T/C was 107 % of control and 110 % of control and 89 % of control.

And the T/C [4]?
Its T/C is 99 % of control and 100 % of control and 101 % of control.

And the T/C [5]?
The T/C was 108 % of control and 121 % of control and 96 % of control.

How did the T/C (dose: 25.0 mg/kg/injection, schedule: Q01DX005 (ip), vehicle: saline) turn out when `N#CCCC[n+]1cc2ccccc2c2ccccc21` was run?
Its T/C is 100 % of control.

What about the T/C [6] of the same compound?
Its T/C is 101 % of control and 109 % of control.

And the T/C [7]?
The T/C was 105 % of control and 112 % of control.

For `CC(=O)NCC[N+](C)(C)C`, which T/C [1] is on record?
The T/C was 100 % of control.

And the T/C [2]?
The T/C was 108 % of control.

What about the T/C [3] of the same compound?
The T/C was 99 % of control.

`COc1cccc(C(=O)O)c1C(=O)O` was tested. Which T/C [5] did it give?
Its T/C is 97 % of control.

What about the T/C [8] of the same compound?
Its T/C is 100 % of control.

What about the T/C [9] of the same compound?
The T/C was 99 % of control.

And the T/C [10]?
The T/C was 106 % of control.

And the T/C (dose: 400.0 mg/kg/injection, schedule: Q01DX009 (ip), vehicle: other)?
Its T/C is 103 % of control.

What does the source list for `[Cl][Sb]([Cl])([Cl])([c]1ccccc1)[c]1ccccc1`?
T/C (dose: 6.25 mg/kg/injection, schedule: Q01DX009 (ip), vehicle: saline): 101 % of control; T/C [1]: 98 % of control; T/C [2]: 91 % of control

For `Cn1cnc2c1c(=O)n(N)c(=O)n2C`, which T/C (dose: 60.0 mg/kg/injection, schedule: Q01DX005 (ip), vehicle: Klucel (hydroxypropylcellulose) (HPC)) is on record?
The T/C was 102 % of control.

And the T/C (dose: 120.0 mg/kg/injection, schedule: Q01DX005 (ip), vehicle: Klucel (hydroxypropylcellulose) (HPC))?
Its T/C is 98 % of control.

What about the T/C (dose: 240.0 mg/kg/injection, schedule: Q01DX005 (ip), vehicle: Klucel (hydroxypropylcellulose) (HPC)) of the same compound?
The T/C was 92 % of control.

For `CCCCC(=O)N/N=C/c1ccc([N+](=O)[O-])s1`, which T/C [11] is on record?
The T/C was 95 % of control.

What about the T/C (dose: 100.0 mg/kg/injection, schedule: Q01DX009 (ip), vehicle: saline with Tween-80) of the same compound?
Its T/C is 99 % of control.

What about the T/C (dose: 200.0 mg/kg/injection, schedule: Q01DX009 (ip), vehicle: saline with Tween-80) of the same compound?
Its T/C is 101 % of control.

What does the source list for `Cc1csc(NC(=S)NC(=O)c2ccccc2)n1`?
T/C (dose: 100.0 mg/kg/injection, schedule: Q04DX003 (ip), vehicle: saline with Tween-80): 91 % of control; T/C (dose: 200.0 mg/kg/injection, schedule: Q04DX003 (ip), vehicle: saline with Tween-80): 90 % of control

Which T/C (dose: 12.5 mg/kg/injection, schedule: Q01DX009 (ip), vehicle: distilled water + Tween-80) does the source give for `CC[As](CC)SC1CCC2(C)C(=CCC3C4CCC(=O)C4(C)CCC32)C1` (stereo not drawn) here?
The T/C was 105 % of control.

And the T/C (dose: 25.0 mg/kg/injection, schedule: Q01DX009 (ip), vehicle: distilled water + Tween-80)?
Its T/C is 100 % of control and 117 % of control.

What about the T/C (dose: 50.0 mg/kg/injection, schedule: Q01DX009 (ip), vehicle: distilled water + Tween-80) of the same compound?
Its T/C is 120 % of control.

And the T/C (dose: 100.0 mg/kg/injection, schedule: Q01DX009 (ip), vehicle: distilled water + Tween-80)?
The T/C was 156 % of control.

How did the T/C (dose: 60.0 mg/kg/injection, schedule: Q01DX005 (ip), vehicle: saline with Tween-80) turn out when `CC12CC3CC(C)(C1)CC(SCCN)(C3)C2` was run?
The T/C was 105 % of control.

What about the T/C (dose: 120.0 mg/kg/injection, schedule: Q01DX005 (ip), vehicle: saline with Tween-80) of the same compound?
Its T/C is 100 % of control.

Which results are given for `CCCOc1ccc(C(C)c2cc3c(cc2OC)OCO3)cc1` (stereo not drawn)?
T/C (dose: 25.0 mg/kg/injection, schedule: Q01DX005 (ip), vehicle: Klucel (hydroxypropylcellulose) (HPC)): 100 % of control; T/C (dose: 50.0 mg/kg/injection, schedule: Q01DX005 (ip), vehicle: Klucel (hydroxypropylcellulose) (HPC)): 103 % of control; T/C (dose: 100.0 mg/kg/injection, schedule: Q01DX005 (ip), vehicle: Klucel (hydroxypropylcellulose) (HPC)): 103 % of control; T/C (dose: 200.0 mg/kg/injection, schedule: Q01DX005 (ip), vehicle: Klucel (hydroxypropylcellulose) (HPC)): 98 % of control

Which T/C (dose: 50.0 mg/kg/injection, schedule: Q01DX009 (ip), vehicle: Klucel (hydroxypropylcellulose) (HPC)) does the source give for `CN(C)[Si](c1ccccc1)(c1ccccc1)N(C)C` here?
Its T/C is 102 % of control.

What about the T/C (dose: 100.0 mg/kg/injection, schedule: Q01DX009 (ip), vehicle: Klucel (hydroxypropylcellulose) (HPC)) of the same compound?
Its T/C is 102 % of control.

And the T/C (dose: 200.0 mg/kg/injection, schedule: Q01DX009 (ip), vehicle: Klucel (hydroxypropylcellulose) (HPC))?
Its T/C is 106 % of control.

Which T/C [6] does the source give for `CCc1cccc(C)c1NC(=O)C(=O)CC(=O)c1ccccc1Cl` here?
Its T/C is 103 % of control.

What about the T/C [7] of the same compound?
The T/C was 107 % of control.

And the T/C (dose: 200.0 mg/kg/injection, schedule: Q01DX005 (ip), vehicle: saline)?
The T/C was 103 % of control.

Which T/C [4] does the source give for `COc1ccc(OC)c2c1CC(C(C)=O)CC2=O` (stereo not drawn) here?
The T/C was 99 % of control.

And the T/C [5]?
The T/C was 112 % of control.

And the T/C [8]?
The T/C was 105 % of control.

What about the T/C [9] of the same compound?
Its T/C is 108 % of control.

And the T/C [10]?
Its T/C is 107 % of control.

With `NC1=C(C(=O)c2ccccc2)CCCC1` as the compound, how does the T/C [3] read?
The T/C was 106 % of control.

What about the T/C (dose: 100.0 mg/kg/injection, schedule: Q01DX009 (ip), vehicle: saline) of the same compound?
The T/C was 97 % of control.

And the T/C (dose: 200.0 mg/kg/injection, schedule: Q01DX009 (ip), vehicle: saline)?
The T/C was 97 % of control.

Which results are given for `Clc1ccc(NCc2ccc(CNc3ccc(Cl)cc3)cc2)cc1`?
T/C (dose: 6.25 mg/kg/injection, schedule: Q01DX009 (ip), vehicle: saline with Tween-80): 98 % of control; T/C (dose: 12.5 mg/kg/injection, schedule: Q01DX009 (ip), vehicle: saline with Tween-80): 91 % of control; T/C (dose: 25.0 mg/kg/injection, schedule: Q01DX009 (ip), vehicle: saline with Tween-80): 91 % of control; T/C [11]: 97 % of control

What does the source list for `COc1ccc(C(=O)N/N=C(\C)[C@]2(O)Cc3c(O)c4c(c(O)c3[C@@H](OC3CC(N)C(O)C(C)O3)C2)C(=O)c2c(OC)cccc2C4=O)cc1` (stereo partly drawn)?
T/C (dose: 0.12 mg/kg/injection, schedule: Q01DX009 (ip), vehicle: water): 119 % of control; T/C (dose: 0.5 mg/kg/injection, schedule: Q01DX009 (ip), vehicle: water): 151 % of control; T/C (dose: 1.0 mg/kg/injection, schedule: Q01DX009 (ip), vehicle: water): 158 % of control and 164 % of control; T/C (dose: 2.0 mg/kg/injection, schedule: Q01DX009 (ip), vehicle: water): 174 % of control and 190 % of control; T/C (dose: 4.0 mg/kg/injection, schedule: Q01DX009 (ip), vehicle: water): 181 % of control and 211 % of control; T/C (dose: 6.0 mg/kg/injection, schedule: Q04DX003 (ip), vehicle: water): 112 % of control; T/C (dose: 12.0 mg/kg/injection, schedule: Q04DX003 (ip), vehicle: water): 121 % of control; T/C (dose: 24.0 mg/kg/injection, schedule: Q04DX003 (ip), vehicle: water): 166 % of control; T/C (dose: 48.0 mg/kg/injection, schedule: Q04DX003 (ip), vehicle: water): 118 % of control

Reference: PubChem BioAssay AID330 (DTP/NCI, 2004)
